Measurements taken from BindingDB's records for doi:10.1002/cbic.200800782 (Philipps-UniversitÄT Marburg, 2009).

Target: Queuine tRNA-ribosyltransferase (Zymomonas mobilis subsp. mobilis (strain ATCC 31821 / ZM4 / CP4), UniProt P28720)
Test: Enzyme Assay
Details: pH 7.3
Text: Inhibition assay using tRNA-guanine transglycosylase (TGT).

Sequence of Queuine tRNA-ribosyltransferase (P28720 whole entry): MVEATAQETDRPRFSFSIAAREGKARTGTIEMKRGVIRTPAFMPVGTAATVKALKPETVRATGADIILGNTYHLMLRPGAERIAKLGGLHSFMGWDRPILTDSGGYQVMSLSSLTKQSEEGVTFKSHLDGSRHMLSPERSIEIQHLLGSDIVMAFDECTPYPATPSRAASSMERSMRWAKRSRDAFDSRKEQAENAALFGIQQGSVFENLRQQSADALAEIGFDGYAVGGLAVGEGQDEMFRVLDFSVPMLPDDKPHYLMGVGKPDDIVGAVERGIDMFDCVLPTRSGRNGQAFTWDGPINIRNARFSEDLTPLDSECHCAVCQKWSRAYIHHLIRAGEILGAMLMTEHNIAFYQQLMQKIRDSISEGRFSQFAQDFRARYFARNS

| SMILES | Ki |
| --- | --- |
| CN(C)c1ccc2c(=O)[nH]c(N)nc2c1 [Quinazolinone scaffold, 1] | 31000 nM |
| CN(Cc1ccccc1)c1ccc2c(=O)[nH]c(N)nc2c1 [Quinazolinone scaffold, 2] | 7600 nM |
| Nc1nc2cc3nc[nH]c3cc2c(=O)[nH]1 [lin-benzoguanine scaffold, 3] | 4100 nM |
| Cc1nc2cc3nc(N)[nH]c(=O)c3cc2[nH]1 [lin-benzoguanine scaffold, 4] | 1500 nM |
| Nc1nc2cc3nc(N)[nH]c3cc2c(=O)[nH]1 [lin-benzoguanine scaffold, 5] | 77 nM |
| CNc1nc2cc3c(=O)[nH]c(N)nc3cc2[nH]1 [lin-benzoguanine scaffold, 6] | 5.8 nM |
| Nc1nc2cc3nc(NCc4cccs4)[nH]c3cc2c(=O)[nH]1 [lin-benzoguanine scaffold, 7] | 3.5 nM |

Second part, the compound after the results:

| Ki | SMILES |
| --- | --- |
| 5.5 nM | Nc1nc2cc3nc(NCc4cccc5ccccc45)[nH]c3cc2c(=O)[nH]1 [lin-benzoguanine scaffold, 8] |
| 6 nM | Nc1nc2cc3[nH]c(NCCN4CCOCC4)nc3cc2c(=O)[nH]1 [lin-benzoguanine scaffold, 9] |
| 10 nM | Nc1nc2cc3nc(NCCc4ccccc4)[nH]c3cc2c(=O)[nH]1 [lin-benzoguanine scaffold, 10] |
